According to US8293211B2, “CB1 receptor antagonists and uses thereof” (MAKScientific, LLC, priority 2007, dated 2012):

Legend:
hCB1 = biological target: T1, hCB1 (Homo sapiens, UniProt P21554); experiment: Forskolin-stimulated cAMP assay; format: cell-based
T1 construct: expressed in transfected cells; host or cells: HEK293
Description: Intracellular cAMP levels were measured with a competitive protein-binding assay using intact HEK293 cells expressing hCB1 or hCB2 and a cAMP immunoassay kit from Sigma (St. Louis, Mo.). In short, forskolin stimulated cells were incubated with various concentrations of compound, cAMP anti-body and cAMP conjugate for 2 hours at ambient temperature. The reaction was stopped by emptying the wells followed by the addition of p-NPP substrate and incubation for 1 hour. […] The results were expressed as percent inhibition of forskolin-stimulated cAMP accumulation and EC50 curves were generated with the use of GraphPad Prism software.

[1] = system: Male Sprague-Dawley (SD) rats; experiment: Food intake studies (experiments A, B, C), food intake and body weight; format: in vivo, rat
Description: All experimental protocols were approved by internal guidelines. Different concentrations of drugs were administered I.P. in a 1 ml kg-1 (milliliters per kilogram) volume, except M6G, which was given s.c. (subcutaneously) in a 0.1 ml kg-1 volume.
Food and water were presented in inverted glass bottles that attached to the outside of the cage. Food was available for 18 h each day starting at 16:00 h (12 h light-dark cycle; lights off 16:00 h).
Intake measurements were taken at 1.5 h, 3 h, 5 h, and 18 h after food became available.
Rats were habituated to testing and handling procedures as before. […] Food intake and body weight were monitored daily.
On the day of the experiment each rat received only a single injection, 30 min later food was made available as described in experiment 1. Food intake was measured 0.5, 1.5, 3, 5, and 18 h after administration. Food intake and body weight were monitored daily for five days after the experiment to assess the sustained effect of a single administration of each compound.

adult male ferrets = experiment: Emesis studies: vomiting induced by the emetic M6G; format: in vivo, ferret; details: for mean number of vomiting episodes±SEM: 60 min observation
Description: Ferrets were lightly anaesthetized with halothane for each injection. Data were videotaped and analyzed by an observer blinded to the conditions of each treatment group. During 60 min of observation the number of vomiting (emetic) episodes were counted, and activity or sleeping time was noted. […] Each ferret acted as its own control, conditions were randomized via a counter balance design and separated by at least 14 days.

Rats = experiment: Food intake studies using different diets; format: in vivo, rat; details: 2.0, 4.0, 8.0 mg/kg IP 30 min prior; high-fat, high-carbohydrate, lab chow
Description: Animals were assigned to three different diet conditions (n=10/group). One group was assigned to a high-fat diet (HF; Diet # D12451, Research Diets, New Brunswick, N.J., 20% protein, 45% fat, 35% carbohydrate). A second group was given a high-carbohydrate diet (HC; Diet # D12450B, Research Diets, New Brunswick, N.J., 20% protein, 10% fat, 70% carbohydrate). The remaining group was fed a standard chow diet (LC, 5P00 Prolab RMH 3000, PMI Nutrition International, St. Louis, Mo.; 26% protein, 14% fat, 60% carbohydrate). Food blocks from each type of diet were nutritionally complete and similar in appearance and weight. Rats were given free access to lab chow in their home cages until the beginning of a five day habituation period. On the first day of habituation, rats were assigned to their respective dietary groups and moved into suspended wire mesh test cages containing their assigned food type. After spending 30 min in the test cage, they were returned to their home cages. After this initial habituation period, rats were given free access to lab chow in their home cages every Thursday afternoon through Monday afternoon. Each Tuesday and Wednesday, rats spent 30 min in the test cages with their assigned diets. On Thursdays, the injected animals were placed in the test cages with a pre-weighed amount of assigned food. A piece of cardboard was placed underneath the chamber to catch spillage. […]

CB1 receptor = CB1 receptor (Rattus norvegicus, UniProt P20272); experiment: [3H]CP55,940 competitive binding assay, CB1 (rat brain membranes); set-up: membrane preparations from rat brain; from tissue; host or cells: rat brain membranes
Chain of CB1 receptor (P20272 whole entry): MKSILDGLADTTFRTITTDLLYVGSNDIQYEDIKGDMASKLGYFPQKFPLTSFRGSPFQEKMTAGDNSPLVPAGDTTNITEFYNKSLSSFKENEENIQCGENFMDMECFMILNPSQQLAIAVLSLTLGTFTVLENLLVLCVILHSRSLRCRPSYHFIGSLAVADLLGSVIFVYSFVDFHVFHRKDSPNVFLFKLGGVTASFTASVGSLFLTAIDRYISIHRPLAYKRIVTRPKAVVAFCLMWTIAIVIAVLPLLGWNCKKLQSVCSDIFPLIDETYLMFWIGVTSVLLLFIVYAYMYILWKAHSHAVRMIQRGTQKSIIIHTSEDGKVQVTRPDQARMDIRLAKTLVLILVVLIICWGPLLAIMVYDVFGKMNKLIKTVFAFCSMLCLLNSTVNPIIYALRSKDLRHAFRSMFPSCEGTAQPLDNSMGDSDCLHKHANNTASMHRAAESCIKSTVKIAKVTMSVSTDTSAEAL
Description: Compounds were tested for their CB1 and CB2 receptor using membrane preparations from rat brain or HEK293 cells expressing hCB2 receptor, respectively, and [^3H]CP55,940 as previously described 1, 36-38. Stock solutions of the compounds (10 mM in DMSO) were diluted in TME buffer (50 mM Tris-HCL, 3 mM MgCl2, 100 mM NaCl, 0.2 mM EDTA, pH 7.4) with 0.1% BSA and transferred to 96 well plates containing [^3H]CP55,940 (specific activity 128 Ci/mmol; NIDA) at a final concentration of 0.76 nM. Non-specific binding was assessed in the presence of 100 nM CP55,940. The binding reaction was initiated with the addition of the respective membrane suspension (˜50 μg membrane protein) followed by incubation at 30° C. with gentle agitation in a shaking water bath for 60 minutes. […] The filter plates were washed with ice-cold wash buffer (50 mM Tris-base, 5 mM MgCl2 with 0.5% BSA) and bound radioactivity was determined using a Packard TopCount Scintillation Counter. The results were analyzed using nonlinear regression to determine the actual IC50 and the Ki values of the ligand (Prizm by GraphPad Software, Inc.). All data were in duplicate with IC50 and Ki values determined from at least two independent experiments.
The affinity of a compound for CB1 vs. CB2 is determined by the ratio of the inhibitory constants (Ki), as determined by the competitive binding assay.

[2] = experiment B, 5 mg kg-1 daily, day 4
[3] = experiment B, 5 mg kg-1 daily, day 5

T1 sequence (P21554 whole entry): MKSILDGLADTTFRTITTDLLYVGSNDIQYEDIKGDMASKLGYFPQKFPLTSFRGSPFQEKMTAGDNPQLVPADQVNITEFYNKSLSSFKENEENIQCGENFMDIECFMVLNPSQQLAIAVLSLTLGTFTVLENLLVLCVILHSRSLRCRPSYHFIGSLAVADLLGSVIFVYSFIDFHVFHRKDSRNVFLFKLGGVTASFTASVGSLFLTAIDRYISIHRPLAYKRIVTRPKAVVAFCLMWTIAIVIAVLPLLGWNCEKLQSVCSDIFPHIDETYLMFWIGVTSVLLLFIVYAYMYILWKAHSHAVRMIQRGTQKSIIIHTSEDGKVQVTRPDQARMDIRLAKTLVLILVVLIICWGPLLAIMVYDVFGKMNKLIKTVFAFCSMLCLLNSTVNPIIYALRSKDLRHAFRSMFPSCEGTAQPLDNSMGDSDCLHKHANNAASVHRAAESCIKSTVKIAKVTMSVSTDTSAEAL

## Cc1c(C(=O)NN2CCCCC2)nn(-c2ccc(Cl)cc2Cl)c1-c1ccc(C#CCCC#N)cc1 [Compound 3]
hCB1; CB1 transfected HEK cells, up to concentrations of 630 nM
  change of forskolin-stimulated cAMP accumulation: did not change
hCB1; HEK293 cells transfected with human CB1 receptors
  effect on forskolin stimulated cAMP production: no effect
[1]; experiment A, 5 mg kg-1 I.P. single dose
  acute effect on food intake compared with vehicle: did not significantly reduced food intake
[1]; experiment B, 1 mg kg-1 daily
  food intake and weight gain, differences to vehicle treated rats: non significant
[1]; experiment B, 5 mg kg-1 daily, day 3
  food intake, difference compared with vehicle treated rats: -23.2 g
[1]; [2]
  food intake, difference compared with vehicle treated rats: -20.4 g
  weight gain, difference to vehicle treated rats: -15.6 g
[1]; [3]
  food intake, difference compared with vehicle treated rats: -19.2 g
  weight gain, difference to vehicle treated rats: -21.8 g
[1]; experiment B, 5 mg kg-1 daily, day 6
  weight gain, difference to vehicle treated rats: -23.7 g
[1]; experiment B, 1 and 5 mg kg-1 daily, first day of treatment
  food intake compared with vehicle: No significant reductions
[1]; experiment B, 1 and 5 mg kg-1 daily, second day of treatment
  differences in food intake: not statistically significant
[1]; experiment B, daily treatment, day 3
  food intake, difference between the 1 mg kg-1 and 5 mg kg-1 doses: -17.6 g
[1]; experiment B, daily treatment, day 4
  weight gain, difference 5 mg kg-1 versus 1 mg kg-1: -12.0 g
[1]; experiment C, 10 mg kg-1 single dose, 3 h
  food intake, difference compared with vehicle treated rats: -20.0 g
[1]; experiment C, 10 mg kg-1 single dose, 5 h
  food intake, difference compared with vehicle treated rats: -22.8 g
[1]; experiment C, 10 mg kg-1 single dose, 18 h
  food intake, difference compared with vehicle treated rats: -42.0 g
[1]; experiment C, 10 mg kg-1 single dose, […]
  food intake, difference compared with vehicle treated rats: -14.3 g
[1]; experiment C, 20 mg kg-1 single dose, 3 h
  food intake, difference compared with vehicle treated rats: -21.3 g
[1]; experiment C, 20 mg kg-1 single dose, 5 h
  food intake, difference compared with vehicle treated rats: -30.1 g
[1]; experiment C, 20 mg kg-1 single dose, 18 h
  food intake, difference compared with vehicle treated rats: -60.6 g
[1]; experiment C, 20 mg kg-1 single dose, […]
  food intake, difference compared with vehicle treated rats: -15.0 g
[1]; experiment C, single administration (Compound 1 5 mg kg-1; Compound 3 10, 20 mg kg-1)
  weight gain for several days after the experiment: significantly reduced
[1]; experiment C, single administration (Compound 1 5 mg kg-1; Compound 3 10, 20 mg kg-1), days after
  daily food intake after treatment relative to vehicle treated rats: reduced
[1]; experiment C, single dose, day 5
  weight gain, difference between 10 mg kg-1 and 20 mg kg-1 treatment groups: -12.3 g
Adult male ferrets; 5 mg kg-1 I.P. 15 min before M6G
  mean number of vomiting episodes±SEM: 2.0±0.6
Adult male ferrets; 10 mg kg-1 I.P. 15 min before M6G
  mean number of vomiting episodes±SEM: 2.0±0.4
Adult male ferrets; 20 mg kg-1 I.P. 15 min before M6G
  mean number of vomiting episodes±SEM: 2.7±0.6
Adult male ferrets; Compound 3 5, 10, 20 mg kg-1, Compound 1 5 mg kg-1
  effect on number of vomiting episodes induced by M6G compared with vehicle: did not significantly increase
Rats
  food intake over vehicle across all diet groups: significantly suppressed food intake
CB1 receptor; against [3H]CP55,940, rat brain membranes
  Ki: 0.89 ± 0.44 nM
CB1 receptor; ratio of Ki values
  selectivity for CB1 versus CB2 receptors: ~100 fold
